From ChEMBL document CHEMBL3758172, “Design and synthesis of fluorescent and biotin tagged probes for the study of molecular actions of FAF1 inhibitor” (Bioorg Med Chem Lett, 2016)
Calls of active or inactive are those of the source. No cut-off for these calls is given here.

Key:
SH-SY5Y [1] = test: Inhibition of ischemic cell death in human SH-SY5Y cells assessed as LDH release at 20 uM pretreated for 30 mins followed by addition of 500 uM H2O2 measured after 6 hrs; type: functional, cell-based
SH-SY5Y [2] = test: Inhibition of ischemic cell death in human SH-SY5Y cells assessed as cell viability pretreated for 30 mins followed by addition of 500 uM H2O2 measured after 6 hrs by MTS assay; type: functional, cell-based
[3] = biological target: T1, FAS-associated factor 1 (Homo sapiens) (UniProt Q9UNN5); test: Binding affinity to FLAG-tagged FAF1 (unknown origin) expressed in H2O2-treated human SH-SY5Y cells after 12 hrs by immunoblot analysis; type: cell-based
T1 sequence (whole entry): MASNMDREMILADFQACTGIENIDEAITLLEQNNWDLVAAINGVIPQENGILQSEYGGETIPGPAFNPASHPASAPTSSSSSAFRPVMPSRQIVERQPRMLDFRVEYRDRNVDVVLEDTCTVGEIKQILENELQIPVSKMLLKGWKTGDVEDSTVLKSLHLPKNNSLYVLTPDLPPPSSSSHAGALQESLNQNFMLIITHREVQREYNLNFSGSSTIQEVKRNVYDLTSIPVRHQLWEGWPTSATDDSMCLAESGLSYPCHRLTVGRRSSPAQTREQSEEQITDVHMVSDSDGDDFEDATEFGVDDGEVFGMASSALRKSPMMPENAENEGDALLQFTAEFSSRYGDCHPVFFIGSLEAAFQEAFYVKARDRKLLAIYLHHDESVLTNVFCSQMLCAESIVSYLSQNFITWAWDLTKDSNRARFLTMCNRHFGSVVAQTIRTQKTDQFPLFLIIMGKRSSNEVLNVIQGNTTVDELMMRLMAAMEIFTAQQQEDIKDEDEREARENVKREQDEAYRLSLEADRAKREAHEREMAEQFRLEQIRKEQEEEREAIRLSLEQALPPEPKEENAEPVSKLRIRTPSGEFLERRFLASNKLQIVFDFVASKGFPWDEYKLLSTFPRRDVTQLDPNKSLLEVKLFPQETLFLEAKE

[4] = biological target: T1, FAS-associated factor 1 (Homo sapiens); test: Binding affinity to FLAG-tagged FAF1 (unknown origin) expressed in H2O2-treated human SH-SY5Y cells at 100 uM after 12 hrs by immunoblot analysis; type: cell-based

Row | SMILES | inhibition (SH-SY5Y [1]) | inhibition (SH-SY5Y [2]) | inhibition [3] | inhibition [4]
1 | CN(C)c1cccc2c(S(=O)(=O)NCCCCOc3ccc(CCn4cc(NC(=O)CSc5ccc(Br)cc5)c(C(=O)O)n4)cc3)cccc12 | Active | Active | Active | 
2 | O=C(CSc1ccc(Br)cc1)Nc1cn(CCc2ccccc2)nc1C(=O)O | Active | Active |  | 
3 | O=C(CCCC[C@@H]1SC[C@@H]2NC(=O)N[C@@H]21)NCCCCOc1ccc(CCn2cc(NC(=O)CSc3ccc(Br)cc3)c(C(=O)O)n2)cc1 | Active | Active |  | Active
